Assay results as given in ChEMBL document CHEMBL6074671, “Discovery of Pyridine-2-Carboxamides Derivatives as Potent and Selective HPK1 Inhibitors for the Treatment of Cancer” (J Med Chem, 2024).
Values belong to the molecule of their own block, whether it stands above or below them.

Columns and labels:
[1] = molecular target: T1, Mitogen-activated protein kinase kinase kinase kinase 1 (Homo sapiens, UniProt Q92918); test: Inhibition of HPK1 in human PBMC cells assessed as IL-2 level pretreated for 4 hrs followed by anti-CD3/CD28 stimulation for 20 mins by HTRF method; format: cell-based
T1 sequence (Q92918 whole entry): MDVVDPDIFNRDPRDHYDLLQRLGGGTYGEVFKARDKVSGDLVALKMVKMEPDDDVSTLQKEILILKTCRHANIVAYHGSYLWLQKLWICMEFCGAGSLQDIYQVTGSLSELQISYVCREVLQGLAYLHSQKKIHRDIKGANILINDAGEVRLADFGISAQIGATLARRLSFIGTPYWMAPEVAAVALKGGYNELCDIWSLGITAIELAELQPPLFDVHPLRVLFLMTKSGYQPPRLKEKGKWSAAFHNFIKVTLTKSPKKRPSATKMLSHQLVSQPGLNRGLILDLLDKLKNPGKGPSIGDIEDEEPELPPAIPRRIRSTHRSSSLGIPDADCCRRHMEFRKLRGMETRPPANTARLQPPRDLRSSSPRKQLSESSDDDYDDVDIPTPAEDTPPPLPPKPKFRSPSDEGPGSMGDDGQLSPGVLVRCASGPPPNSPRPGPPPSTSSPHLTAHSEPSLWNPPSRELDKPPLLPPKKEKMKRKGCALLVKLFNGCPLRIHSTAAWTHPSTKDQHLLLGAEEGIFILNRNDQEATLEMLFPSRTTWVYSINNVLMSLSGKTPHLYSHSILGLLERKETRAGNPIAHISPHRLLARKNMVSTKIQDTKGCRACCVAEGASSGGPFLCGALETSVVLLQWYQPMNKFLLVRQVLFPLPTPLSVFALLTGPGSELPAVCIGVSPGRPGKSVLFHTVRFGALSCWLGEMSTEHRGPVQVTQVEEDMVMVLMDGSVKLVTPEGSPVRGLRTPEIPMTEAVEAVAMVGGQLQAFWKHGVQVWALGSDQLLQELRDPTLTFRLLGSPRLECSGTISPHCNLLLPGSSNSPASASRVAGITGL

[2] = molecular target: T2, Mitogen-activated protein kinase kinase kinase kinase 3 (Homo sapiens, UniProt Q8IVH8); test: Inhibition of GLK (unknown origin)
T2 sequence (Q8IVH8 whole entry): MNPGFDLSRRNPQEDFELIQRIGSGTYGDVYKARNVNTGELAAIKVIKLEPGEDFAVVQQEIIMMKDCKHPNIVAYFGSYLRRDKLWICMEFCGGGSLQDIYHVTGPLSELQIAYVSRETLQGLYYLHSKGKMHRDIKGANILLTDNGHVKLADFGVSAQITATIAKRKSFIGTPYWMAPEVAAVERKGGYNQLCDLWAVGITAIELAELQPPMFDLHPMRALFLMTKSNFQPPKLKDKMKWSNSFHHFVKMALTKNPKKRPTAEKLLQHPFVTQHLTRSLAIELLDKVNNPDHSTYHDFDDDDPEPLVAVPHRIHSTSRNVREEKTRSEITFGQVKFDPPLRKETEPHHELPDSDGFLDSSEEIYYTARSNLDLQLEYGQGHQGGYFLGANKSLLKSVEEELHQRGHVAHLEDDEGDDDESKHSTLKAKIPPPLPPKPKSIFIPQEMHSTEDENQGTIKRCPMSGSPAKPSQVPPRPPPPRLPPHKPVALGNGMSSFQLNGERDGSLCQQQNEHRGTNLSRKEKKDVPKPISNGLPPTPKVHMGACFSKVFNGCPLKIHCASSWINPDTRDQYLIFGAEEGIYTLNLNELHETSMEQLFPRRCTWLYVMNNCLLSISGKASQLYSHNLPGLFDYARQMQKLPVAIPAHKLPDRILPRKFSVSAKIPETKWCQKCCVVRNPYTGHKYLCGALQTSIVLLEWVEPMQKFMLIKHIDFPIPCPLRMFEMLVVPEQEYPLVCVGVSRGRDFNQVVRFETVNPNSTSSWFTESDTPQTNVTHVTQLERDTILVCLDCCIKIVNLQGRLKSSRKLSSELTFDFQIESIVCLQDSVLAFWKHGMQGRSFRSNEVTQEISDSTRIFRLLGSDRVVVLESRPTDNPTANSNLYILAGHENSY

in vivo [3] = conditions: Sprague-Dawley, rat, po
Description: Half life in Sprague-Dawley rat administered as po dose

in vivo [4] = conditions: Sprague-Dawley, rat, plasma, iv
Description: Clearance in Sprague-Dawley rat plasma administered as iv dose

in vivo [5] = conditions: Sprague-Dawley, rat, po; remark: listed apart in the source
Description: Oral bioavailability in Sprague-Dawley rat

[6] = molecular target: T1, Mitogen-activated protein kinase kinase kinase kinase 1; test: Inhibition of human recombinant wild type N-terminal HPK1 (1 to 346 residues) infected in insect Sf21 cells using fluorescein-PKC as substrate preincubated for 10 mins followed by substrate addition and measured after 90 mins by microplate reader based analysis; format: single protein
in vivo [7] = conditions: Sprague-Dawley, rat, iv
Description: Volume of distribution in Sprague-Dawley rat administered as iv dose

[8] = Dose normalized AUC (0 to 24 hrs) in Sprague-Dawley rat at 10 mg/kg, po; format: ADME, organism-based; conditions: in vivo
[9] = Oral bioavailability in Balb/c mouse at 10 mg/kg; format: ADME, organism-based; conditions: in vivo
[10] = Half life in Sprague-Dawley rat at 10 mg/kg, po; format: ADME, organism-based; conditions: in vivo
in vivo [11] = conditions: Beagle, dog, po, 2 mg/kg
[12] = Dose normalized AUC (0 to 24 hrs) in Balb/c mouse at 10 mg/kg, po; format: ADME, organism-based; conditions: in vivo
[13] = dog, in vivo, po, 2 mg/kg
in vivo [14] = conditions: Beagle, dog, po, 2 mg/kg; remark: listed apart in the source
Description: Half life in Beagle dog at 2 mg/kg, po

in vivo [15] = conditions: Beagle, dog, plasma, iv, 1 mg/kg
Description: Clearance in Beagle dog plasma at 1 mg/kg, iv

in vivo [16] = conditions: Sprague-Dawley, rat, plasma, iv, 1 mg/kg
Description: Clearance in Sprague-Dawley rat plasma at 1 mg/kg, iv

in vivo [17] = conditions: Sprague-Dawley, rat, iv, 1 mg/kg
Description: Volume of distribution in Sprague-Dawley rat at 1 mg/kg, iv

in vivo [18] = conditions: Beagle, dog, iv, 1 mg/kg
Description: Volume of distribution in Beagle dog at 1 mg/kg, iv

in vivo [19] = conditions: Balb/c, mouse, plasma, iv, 1 mg/kg
Description: Clearance in Balb/c mouse plasma at 1 mg/kg, iv

[20] = Half life in Balb/c mouse at 10 mg/kg, po; format: ADME, organism-based; conditions: in vivo
in vivo [21] = conditions: Balb/c, mouse, iv, 1 mg/kg
Description: Volume of distribution in Balb/c mouse at 1 mg/kg, iv

[22] = Oral bioavailability n Sprague-Dawley rat at 10 mg/kg; format: ADME, organism-based; conditions: in vivo
[23] = Inhibition of pSLP76 in human PBMC cells incubated for 4 hrs by HTRF method; format: cell-based
[24] = Effect on IFN-gamma secretion in human T cells by ELISA method; format: functional, cell-based; conditions: T-cell
[25] = Effect on IL-2 secretion in human T cells by ELISA method; format: functional, cell-based; conditions: T-cell
[26] = Half life in Balb/c mouse administered as po dose; format: ADME, organism-based; conditions: in vivo
[27] = Oral bioavailability in Balb/c mouse; format: ADME, organism-based; conditions: in vivo
[28] = Volume of distribution in Balb/c mouse administered as iv dose; format: ADME, organism-based; conditions: in vivo
[29] = Dose normalized AUC (0 to 24 hrs) in Balb/c mouse administered as po dose; format: ADME, organism-based; conditions: in vivo
[30] = Clearance in Balb/c mouse plasma administered as iv dose; format: ADME, organism-based

EC50 [1]: 10 nM
IC50 [2]: 241 nM
half-life (in vivo [3]): 1.22 h
clearance (in vivo [4]): 32.6 mL/min/kg
bioavailability (in vivo [5]): 24.3%
IC50 [6]: < 0.51 nM
Vd (in vivo [7]): 1.75 L/kg
SMILES: COc1cc(Nc2ccc3c(n2)CN(C)C32CCOCC2)c(C(N)=O)nc1-c1cncc2c1ncn2C

EC50 [1]: 102 nM
IC50 [2]: 322 nM
IC50 [6]: < 0.51 nM
SMILES: COc1cc(Nc2ccc3c(n2)CN(C)C32CCOCC2)c(C(N)=O)nc1-c1cccc2c1ncn2C(F)F

EC50 [1]: 168 nM
IC50 [2]: 239 nM
IC50 [6]: < 0.51 nM
SMILES: CCN1Cc2nc(Nc3cc(OC)c(-c4cccc5c4ncn5C)nc3C(N)=O)ccc2C12CCOCC2

IC50 [2]: 27 nM
IC50 [6]: < 0.51 nM
SMILES: COc1cc(Nc2ccc3c(n2)CN(C)C32CCOCC2)c(C(N)=O)nc1-c1ccnc2c1ccn2C

AUC/dose [8]: 4502 ng·h/mL
EC50 [1]: 32.7 nM
IC50 [2]: 114 nM
bioavailability [9]: 24.6%
half-life [10]: 2.61 h
bioavailability (in vivo [11]): 26.3%
AUC/dose [12]: 308.2 ng·h/mL
AUC/dose [13]: 289.2 ng·h/mL
half-life (in vivo [14]): 6.06 h
clearance (in vivo [15]): 14.7 mL/min/kg
clearance (in vivo [16]): 19.8 mL/min/kg
Vd (in vivo [17]): 2.25 L/kg
IC50 [6]: < 0.51 nM
Vd (in vivo [18]): 6 L/kg
clearance (in vivo [19]): 13.2 mL/min/kg
half-life [20]: 4.33 h
Vd (in vivo [21]): 1.08 L/kg
bioavailability [22]: 54.7%
SMILES: CN1Cc2nc(Nc3cc(C4CC4)c(-c4cccc5c4ncn5C)nc3C(N)=O)ccc2C12CCN(C1COC1)CC2

IC50 [2]: 95 nM
IC50 [6]: < 0.51 nM
SMILES: COc1cc(Nc2ccc3c(n2)CN(C)C32CCOCC2)c(C(N)=O)nc1-c1cncc2c1ccn2C

IC50 [23]: 14 nM
EC50 [24]: 22.2 nM
EC50 [25]: 35.3 nM
SMILES: CN(C)Cc1nc(Nc2ccc(-c3cnc4cc(F)ccn34)c3c2C(=O)NC3)ccc1C1CCOCC1

EC50 [1]: 54.9 nM
IC50 [2]: 153 nM
IC50 [6]: < 0.51 nM
SMILES: CN1Cc2nc(Nc3cc(OC(F)F)c(-c4cccc5c4ncn5C)nc3C(N)=O)ccc2C12CCOCC2

half-life [26]: 0.93 h
bioavailability [27]: 38.6%
Vd [28]: 1.08 L/kg
IC50 [2]: 28.4 nM
AUC/dose [29]: 273.3 ng·h/mL
IC50 [6]: 0.64 nM
clearance [30]: 23.7 mL/min/kg
SMILES: CN1Cc2nc(Nc3ccc(C4=CCCC(NC(=O)c5ccccc5)C4)nc3C(N)=O)ccc2C12CCOCC2 (stereo unspecified)

EC50 [1]: 149 nM
IC50 [2]: 162 nM
IC50 [6]: < 0.51 nM
SMILES: COc1cc(Nc2ccc3c(n2)CN(C)C32CCCC2)c(C(N)=O)nc1-c1cccc2c1ncn2C
